In ChEMBL document CHEMBL1132169 (J Med Chem, 1999):

Experiments:
[1] = biological target: T1, Sodium-dependent dopamine transporter (Rattus norvegicus, UniProt P23977); assay: Inhibitory binding activity against rat striatal tissue using [3H][…] as the radioligand.; format: tissue-based, Striatum
[2] = biological target: T1, Sodium-dependent dopamine transporter; assay: Inhibition of dopamine uptake into rat striatal tissue, using [3H]- dopamine as the radioligand.; format: tissue-based, Striatum
[3] = biological target: Sodium-dependent dopamine transporter (Rattus norvegicus) (UniProt P23977); assay: Discrimination ratio of compound is the ratio of inhibitory activity against [3H]dopamine uptake over [3H][…] binding
Sequence of Sodium-dependent dopamine transporter (Rattus norvegicus) (P23977 whole entry): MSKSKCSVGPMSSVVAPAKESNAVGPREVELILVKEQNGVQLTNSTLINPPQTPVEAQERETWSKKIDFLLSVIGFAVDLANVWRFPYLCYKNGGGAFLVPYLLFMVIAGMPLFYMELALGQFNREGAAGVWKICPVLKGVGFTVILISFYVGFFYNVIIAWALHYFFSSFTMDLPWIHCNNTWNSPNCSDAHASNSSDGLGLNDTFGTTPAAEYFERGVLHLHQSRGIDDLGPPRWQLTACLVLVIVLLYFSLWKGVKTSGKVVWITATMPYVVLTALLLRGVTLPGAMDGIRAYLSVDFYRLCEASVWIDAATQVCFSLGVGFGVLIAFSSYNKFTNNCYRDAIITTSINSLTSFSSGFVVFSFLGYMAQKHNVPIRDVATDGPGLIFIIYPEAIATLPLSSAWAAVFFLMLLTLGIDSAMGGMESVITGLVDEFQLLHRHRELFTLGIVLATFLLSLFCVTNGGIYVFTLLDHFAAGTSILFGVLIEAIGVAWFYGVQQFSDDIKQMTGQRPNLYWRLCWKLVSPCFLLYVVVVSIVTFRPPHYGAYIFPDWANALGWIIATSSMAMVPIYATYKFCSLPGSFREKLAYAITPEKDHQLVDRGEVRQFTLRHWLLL

T1 sequence (P23977 whole entry): as above

| SMILES | IC50 [1] | IC50 [2] | Discrimination ratio [3] |
| --- | --- | --- | --- |
| COc1ccc(C2C3CCC(CC3)C2CN(C)C)cc1 (stereo not given) | 380 nM | 1430 nM | 3.8 |
| COc1ccc(C2C3CCC(CC3)C2CN)cc1 (stereo not given) | 249 nM | 1500 nM | 6 |
| NCC1C2CCC(CC2)C1c1ccc(N)cc1 (stereo not given) | 160 nM | 704 nM | 4.4 |
| NCC1C2CCC(CC2)C1c1ccccc1 (stereo in doubt; 5a) [listing 1 of 2 here] | 1200 nM | 5930 nM | – |
| NCC1C2CCC(CC2)C1c1ccccc1 (stereo in doubt; 5a) [listing 2 of 2 here] | – | – | 5 |
| NCC1C2CCC(CC2)C1c1cccc(Cl)c1 (stereo in doubt; 5b) [listing 1 of 2 here] | 204 nM | 960 nM | – |
| NCC1C2CCC(CC2)C1c1cccc(Cl)c1 (stereo in doubt; 5b) [listing 2 of 2 here] | – | – | 4.7 |
| NCC1C2CCC(CC2)C1c1ccc(Cl)cc1 (stereo in doubt; 5c) [listing 1 of 2 here] | 71.4 nM | 375 nM | – |
| NCC1C2CCC(CC2)C1c1ccc(Cl)cc1 (stereo in doubt; 5c) [listing 2 of 2 here] | – | – | 5.2 |
| NCC1C2CCC(CC2)C1c1ccc(Cl)c(Cl)c1 (stereo in doubt; 5d) [listing 1 of 2 here] | 37.5 nM | 97.5 nM | – |
| NCC1C2CCC(CC2)C1c1ccc(Cl)c(Cl)c1 (stereo in doubt; 5d) [listing 2 of 2 here] | – | – | 2.6 |
| CN(C)CC1C2CCC(CC2)C1c1ccccc1 (stereo in doubt; 6a) [listing 1 of 2 here] | 191 nM | 840 nM | – |
| CN(C)CC1C2CCC(CC2)C1c1ccccc1 (stereo in doubt; 6a) [listing 2 of 2 here] | – | – | 4.4 |
| CN(C)CC1C2CCC(CC2)C1c1cccc(Cl)c1 (stereo in doubt; 6b) [listing 1 of 2 here] | 36.8 nM | 186 nM | – |
| CN(C)CC1C2CCC(CC2)C1c1cccc(Cl)c1 (stereo in doubt; 6b) [listing 2 of 2 here] | – | – | 5.1 |
| CN(C)CC1C2CCC(CC2)C1c1ccc(Cl)c(Cl)c1 (stereo in doubt; 6d) [listing 1 of 2 here] | 21.3 nM | 56.3 nM | – |
| CN(C)CC1C2CCC(CC2)C1c1ccc(Cl)c(Cl)c1 (stereo in doubt; 6d) [listing 2 of 2 here] | – | – | 2.6 |
| NCC1C2CCC(CC2)C1c1ccccc1 (stereo in doubt; 7a) [listing 1 of 2 here] | 270 nM | 1480 nM | – |
| NCC1C2CCC(CC2)C1c1ccccc1 (stereo in doubt; 7a) [listing 2 of 2 here] | – | – | 5.5 |
| NCC1C2CCC(CC2)C1c1cccc(Cl)c1 (stereo in doubt; 7b) [listing 1 of 2 here] | 117 nM | 430 nM | – |
| NCC1C2CCC(CC2)C1c1cccc(Cl)c1 (stereo in doubt; 7b) [listing 2 of 2 here] | – | – | 3.7 |
| NCC1C2CCC(CC2)C1c1ccc(Cl)cc1 (stereo in doubt; 7c) [listing 1 of 2 here] | 12.9 nM | 68.3 nM | – |
| NCC1C2CCC(CC2)C1c1ccc(Cl)cc1 (stereo in doubt; 7c) [listing 2 of 2 here] | – | – | 5.3 |
| NCC1C2CCC(CC2)C1c1ccc(Cl)c(Cl)c1 (stereo in doubt; 7d) [listing 1 of 2 here] | 21.5 nM | 34 nM | – |
| NCC1C2CCC(CC2)C1c1ccc(Cl)c(Cl)c1 (stereo in doubt; 7d) [listing 2 of 2 here] | – | – | 1.6 |
| CN(C)CC1C2CCC(CC2)C1c1ccccc1 (stereo in doubt; 8a) [listing 1 of 2 here] | 313 nM | 980 nM | – |

| SMILES | IC50 [1] | IC50 [2] | Discrimination ratio [3] |
| --- | --- | --- | --- |
| CN(C)CC1C2CCC(CC2)C1c1ccccc1 (stereo in doubt; 8a) [listing 2 of 2 here] | – | – | 3.1 |
| CN(C)CC1C2CCC(CC2)C1c1cccc(Cl)c1 (stereo in doubt; 8b) [listing 1 of 2 here] | 86 nM | 283 nM | – |
| CN(C)CC1C2CCC(CC2)C1c1cccc(Cl)c1 (stereo in doubt; 8b) [listing 2 of 2 here] | – | – | 3.3 |
| CN(C)CC1C2CCC(CC2)C1c1ccc(Cl)c(Cl)c1 (stereo in doubt; 8d) [listing 1 of 2 here] | 14.2 nM | 29.3 nM | – |
| CN(C)CC1C2CCC(CC2)C1c1ccc(Cl)c(Cl)c1 (stereo in doubt; 8d) [listing 2 of 2 here] | – | – | 2.1 |
| NCC1C2CCC(C2)C1c1ccccc1 (stereo in doubt; 9a) [listing 1 of 2 here] | 340 nM | 2220 nM | – |
| NCC1C2CCC(C2)C1c1ccccc1 (stereo in doubt; 9a) [listing 2 of 2 here] | – | – | 6.5 |
| NCC1C2CCC(C2)C1c1cccc(Cl)c1 (stereo in doubt; 9b) [listing 1 of 2 here] | 149 nM | 758 nM | – |
| NCC1C2CCC(C2)C1c1cccc(Cl)c1 (stereo in doubt; 9b) [listing 2 of 2 here] | – | – | 5.1 |
| NCC1C2CCC(C2)C1c1ccc(Cl)cc1 (stereo in doubt; 9c) [listing 1 of 2 here] | 46 nM | 230 nM | – |
| NCC1C2CCC(C2)C1c1ccc(Cl)cc1 (stereo in doubt; 9c) [listing 2 of 2 here] | – | – | 5 |
| NCC1C2CCC(C2)C1c1ccc(Cl)c(Cl)c1 (stereo in doubt; 9d) [listing 1 of 2 here] | 11.6 nM | 58 nM | – |
| NCC1C2CCC(C2)C1c1ccc(Cl)c(Cl)c1 (stereo in doubt; 9d) [listing 2 of 2 here] | – | – | 5 |
| COc1ccccc1C1C2CCC(C2)C1CN (stereo in doubt; 9e) [listing 1 of 2 here] | 11600 nM | 36600 nM | – |
| COc1ccccc1C1C2CCC(C2)C1CN (stereo in doubt; 9e) [listing 2 of 2 here] | – | – | 3.1 |
| COc1cccc(C2C3CCC(C3)C2CN)c1 (stereo in doubt; 9f) [listing 1 of 2 here] | 8820 nM | 29300 nM | – |
| COc1cccc(C2C3CCC(C3)C2CN)c1 (stereo in doubt; 9f) [listing 2 of 2 here] | – | – | 3.3 |
| COc1ccc(C2C3CCC(C3)C2CN)cc1 (stereo in doubt; 9g) [listing 1 of 2 here] | 1160 nM | 5550 nM | – |
| COc1ccc(C2C3CCC(C3)C2CN)cc1 (stereo in doubt; 9g) [listing 2 of 2 here] | – | – | 4.8 |
| CN(C)CC1C2CCC(C2)C1c1ccccc1 (stereo in doubt; 10a) [listing 1 of 2 here] | 515 nM | 1100 nM | – |
| CN(C)CC1C2CCC(C2)C1c1ccccc1 (stereo in doubt; 10a) [listing 2 of 2 here] | – | – | 2.1 |
| NCC1C2CCC(C2)C1c1ccccc1 (stereo in doubt; 11a) [listing 1 of 2 here] | 2900 nM | 8850 nM | – |
| NCC1C2CCC(C2)C1c1ccccc1 (stereo in doubt; 11a) [listing 2 of 2 here] | – | – | 3.1 |
| NCC1C2CCC(C2)C1c1cccc(Cl)c1 (stereo in doubt; 11b) [listing 1 of 2 here] | 239 nM | 780 nM | – |
| NCC1C2CCC(C2)C1c1cccc(Cl)c1 (stereo in doubt; 11b) [listing 2 of 2 here] | – | – | 3.3 |
| NCC1C2CCC(C2)C1c1ccc(Cl)cc1 (stereo in doubt; 11c) [listing 1 of 2 here] | 207 nM | 593 nM | – |

| SMILES | IC50 [1] | IC50 [2] | Discrimination ratio [3] |
| --- | --- | --- | --- |
| NCC1C2CCC(C2)C1c1ccc(Cl)cc1 (stereo in doubt; 11c) [listing 2 of 2 here] | – | – | 2.9 |
| NCC1C2CCC(C2)C1c1ccc(Cl)c(Cl)c1 (stereo in doubt; 11d) [listing 1 of 2 here] | 32.7 nM | 93.6 nM | – |
| NCC1C2CCC(C2)C1c1ccc(Cl)c(Cl)c1 (stereo in doubt; 11d) [listing 2 of 2 here] | – | – | 2.9 |
| COc1ccccc1C1C2CCC(C2)C1CN (stereo in doubt; 11e) [listing 1 of 2 here] | 1480 nM | 7860 nM | – |
| COc1ccccc1C1C2CCC(C2)C1CN (stereo in doubt; 11e) [listing 2 of 2 here] | – | – | 5.3 |
| COc1cccc(C2C3CCC(C3)C2CN)c1 (stereo in doubt; 11f) [listing 1 of 2 here] | 2010 nM | 6560 nM | – |
| COc1cccc(C2C3CCC(C3)C2CN)c1 (stereo in doubt; 11f) [listing 2 of 2 here] | – | – | 3.3 |
| COc1ccc(C2C3CCC(C3)C2CN)cc1 (stereo in doubt; 11g) [listing 1 of 2 here] | 1700 nM | 7120 nM | – |
| COc1ccc(C2C3CCC(C3)C2CN)cc1 (stereo in doubt; 11g) [listing 2 of 2 here] | – | – | 4.2 |
| CN(C)CC1C2CCC(C2)C1c1ccccc1 (stereo in doubt; 12a) [listing 1 of 2 here] | 2510 nM | 4330 nM | – |
| CN(C)CC1C2CCC(C2)C1c1ccccc1 (stereo in doubt; 12a) [listing 2 of 2 here] | – | – | 1.7 |
| NCC1C2CCC(C2)C1c1ccccc1 (stereo in doubt; 13a) [listing 1 of 2 here] | 816 nM | 3500 nM | – |
| NCC1C2CCC(C2)C1c1ccccc1 (stereo in doubt; 13a) [listing 2 of 2 here] | – | – | 4.3 |
| NCC1C2CCC(C2)C1c1ccc(Cl)cc1 (stereo in doubt; 13c) [listing 1 of 2 here] | 65.3 nM | 348 nM | – |
| NCC1C2CCC(C2)C1c1ccc(Cl)cc1 (stereo in doubt; 13c) [listing 2 of 2 here] | – | – | 5.3 |
| NCC1C2CCC(C2)C1c1ccc(Cl)c(Cl)c1 (stereo in doubt; 13d) [listing 1 of 2 here] | 21.3 nM | 98.7 nM | – |
| NCC1C2CCC(C2)C1c1ccc(Cl)c(Cl)c1 (stereo in doubt; 13d) [listing 2 of 2 here] | – | – | 4.6 |
| COc1ccc(C2C3CCC(C3)C2CN)cc1 (stereo in doubt; 13g) [listing 1 of 2 here] | 495 nM | 2260 nM | – |
| COc1ccc(C2C3CCC(C3)C2CN)cc1 (stereo in doubt; 13g) [listing 2 of 2 here] | – | – | 4.6 |
| CN(C)CC1C2CCC(C2)C1c1ccccc1 (stereo in doubt; 14a) [listing 1 of 2 here] | 2140 nM | 2750 nM | – |
| CN(C)CC1C2CCC(C2)C1c1ccccc1 (stereo in doubt; 14a) [listing 2 of 2 here] | – | – | 1.3 |
| NCC1C2CCC(C2)C1c1ccccc1 (stereo in doubt; 15a) [listing 1 of 2 here] | 251 nM | 875 nM | – |
| NCC1C2CCC(C2)C1c1ccccc1 (stereo in doubt; 15a) [listing 2 of 2 here] | – | – | 3.5 |
| NCC1C2CCC(C2)C1c1ccc(Cl)cc1 (stereo in doubt; 15c) [listing 1 of 2 here] | 7.7 nM | 34.9 nM | – |
| NCC1C2CCC(C2)C1c1ccc(Cl)cc1 (stereo in doubt; 15c) [listing 2 of 2 here] | – | – | 4.5 |
